Experimental data from patent US20130252930A1 (BIOMARIN PHARMACEUTICAL INC., priority 2010, published 2013).

molecular target: T1, CYP17 (human testicular microsome) (Homo sapiens, UniProt P05093); assay: CYP17 enzymatic assay (% inhibition at 1 nM) (Biological Example 12); format: biochemical; conditions: compound at 1 nM, read-out: Biological Example No. 12: CYP17 enzymatic assay % inhibition at 1 nM
T1 construct: using microsomal fraction from human testis (Celsis Cat #S00110) as the enzyme source; tissue Celsis S00110; host or cells: human testis microsomal fraction
T1 sequence (P05093 1-508): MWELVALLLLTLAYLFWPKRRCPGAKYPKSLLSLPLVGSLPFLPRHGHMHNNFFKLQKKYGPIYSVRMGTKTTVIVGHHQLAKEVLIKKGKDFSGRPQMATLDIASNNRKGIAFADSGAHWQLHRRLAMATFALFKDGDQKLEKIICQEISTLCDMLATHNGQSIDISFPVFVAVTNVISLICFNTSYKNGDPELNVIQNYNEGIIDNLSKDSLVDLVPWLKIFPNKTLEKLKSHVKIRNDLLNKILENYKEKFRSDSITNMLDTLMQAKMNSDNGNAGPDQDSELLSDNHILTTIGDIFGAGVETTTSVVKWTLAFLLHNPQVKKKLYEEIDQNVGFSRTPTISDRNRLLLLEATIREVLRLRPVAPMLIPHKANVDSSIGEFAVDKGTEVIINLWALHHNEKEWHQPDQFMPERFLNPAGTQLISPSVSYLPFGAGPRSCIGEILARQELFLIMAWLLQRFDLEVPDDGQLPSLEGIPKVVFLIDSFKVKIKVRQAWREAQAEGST

Row | SMILES | inhibition at 0.001 µM
1 | CC1C[C@@H]2[C@H](CC[C@]3(C)C(c4cccnc4)=CC[C@@H]23)[C@@]2(C)CCC(C)(O)C=C12 (stereo partly drawn) [Compound 423, (10R,13S)-3,6,10,13-tetramethyl-17-(pyridin-3-yl)-2,3,6,7,8,9,10,11,12,13,14,15-dodecahydro-1H-cyclopenta[a]phenanthren-3-ol] | 10 to 50%
2 | CC1C[C@@]2(C)C(CC[C@@H]3[C@@H]2CC[C@]2(C)C(c4cccnc4)=CC[C@@H]32)C(C)C1O (stereo partly drawn) [Compound 416, (10R,13S)-2,4,10,13-tetramethyl-17-(pyridin-3-yl)-2,3,4,5,6,7,8,9,10,11,12,13,14,15-tetradecahydro-1H-cyclopenta[a]phenanthren-3-ol] | 10 to 50%
3 | Cc1cc(C2=CCC3C4CC=C5C[C@@H](O)CC[C@]5(C)C4CC[C@]23C)cnc1F (stereo partly drawn) [Compound 278, (3S,10R,13S)-17-(6-fluoro-5-methylpyridin-3-yl)-10,13-dimethyl-2,3,4,7,8,9,10,11,12,13,14,15-dodecahydro-1H-cyclopenta[a]phenanthren-3-ol] | < 10%
4 | C[C@]12CCC(O)(CCCO)CC1CC[C@@H]1[C@@H]2CC[C@]2(C)C(c3cccnc3)=CC[C@@H]12 (stereo partly drawn) [Compound 440, (10S,13S)-3-(3-hydroxypropyl)-10,13-dimethyl-17-(pyridin-3-yl)-2,3,4,5,6,7,8,9,10,11,12,13,14,15-tetradecahydro-1H-cyclopenta[a]phenanthren-3-ol] | 10 to 50%
5 | CN1CCC(C(=O)O[C@H]2CC[C@@]3(C)C(=CC[C@H]4C5=CC=C(c6cccnc6)[C@@]5(C)CC[C@@H]43)C2)CC1 [Compound 207, (3S,10R,13S)-10,13-dimethyl-17-(pyridin-3-yl)-2,3,4,7,8,9,10,11,12,13-decahydro-1H-cyclopenta[a]phenanthren-3-yl 1-methylpiperidine-4-carboxylate] | 10 to 50%
6 | Cc1cnc(F)c(C2=CCC3C4CC=C5C[C@@H](O)CC[C@]5(C)C4CC[C@]23C)c1 (stereo partly drawn) [Compound 277, (3S,10R,13S)-17-(2-fluoro-5-methylpyridin-3-yl)-10,13-dimethyl-2,3,4,7,8,9,10,11,12,13,14,15-dodecahydro-1H-cyclopenta[a]phenanthren-3-ol] | 10 to 50%

same assay, conditions: compound at 1 nM, read-out: CYP17 enzymatic assay % inhibition at 1 nM (Biological Example No. 12)

Row | SMILES | inhibition at 0.001 µM
7 | C[C@]12CC[C@@H](N)CC1CC[C@@H]1[C@@H]2CC[C@]2(C)C(c3cccnc3)=CC[C@@H]12 (stereo partly drawn) [Compound 214, (3R,10S,13S)-10,13-dimethyl-17-(pyridin-3-yl)-2,3,4,5,6,7,8,9,10,11,12,13,14,15-tetradecahydro-1H-cyclopenta[a]phenanthren-3-amine] | 10 to 50%
8 | CCc1ccncc1C1=CC[C@H]2[C@@H]3CC[C@H]4CNC(=O)CC[C@]4(C)[C@H]3CC[C@]12C [Compound 470, (5aR,5bS,7aS,10aS,10bR,12aR)-8-(4-ethylpyridin-3-yl)-5a,7a-dimethyl-1,2,5,5a,5b,6,7,7a,10,10a,10b,11,12,12a-tetradecahydrocyclopenta[5,6]naphtho[2,1-c]azepin-3(4H)-one] | < 10%
9 | CCNC(=O)O[C@H]1CC[C@@]2(C)C(=CC[C@H]3C4=CC=C(c5cccnc5)[C@@]4(C)CC[C@@H]32)C1 [Compound 202, (3S,10R,13S)-10,13-dimethyl-17-(pyridin-3-yl)-2,3,4,7,8,9,10,11,12,13-decahydro-1H-cyclopenta[a]phenanthren-3-yl ethylcarbamate] | < 10%
10 | C#C[C@@]1(O)CC[C@@]2(C)C(CCC3C2CC[C@]2(C)C(c4cccnc4)=CCC32)C1 (stereo partly drawn) [Compound 257, (3R,10S,13S)-3-ethynyl-10,13-dimethyl-17-(pyridin-3-yl)-2,3,4,5,6,7,8,9,10,11,12,13,14,15-tetradecahydro-1H-cyclopenta[a]phenanthren-3-ol] | 10 to 50%
11 | Cc1cncc(C2=CC=C3[C@@H]4CCC5CNC(=O)CC[C@]5(C)[C@H]4CC[C@]23C)c1 (stereo partly drawn) [Compound 461, (5aR,5bS,7aS,10bR)-5a,7a-dimethyl-8-(5-methylpyridin-3-yl)-1,2,5,5a,5b,6,7,7a,10b,11,12,12a-dodecahydrocyclopenta[5,6]naphtho[2,1-c]azepin-3(4H)-one] | 10 to 50%
12 | C[C@]12CC[C@@H](NS(C)(=O)=O)CC1=CCC1C2CC[C@]2(C)C(c3cccnc3)=CCC12 (stereo partly drawn) [Compound 225, N-((3R,10R,13S)-10,13-dimethyl-17-(pyridin-3-yl)-2,3,4,7,8,9,10,11,12,13,14,15-dodecahydro-1H-cyclopenta[a]phenanthren-3-yl)methanesulfonamide] | 10 to 50%
13 | CCc1ccncc1C1=CC=C2C3CCC4CNC(=O)CC[C@]4(C)C3CC[C@]12C (stereo partly drawn) [Compound 468, (5aR,7aS)-8-(4-ethylpyridin-3-yl)-5a,7a-dimethyl-1,2,5,5a,5b,6,7,7a,10b,11,12,12a-dodecahydrocyclopenta[5,6]naphtho[2,1-c]azepin-3(4H)-one] | 10 to 50%
14 | CC1(C)C(=O)CC[C@@]2(C)C1=CC[C@@H]1[C@@H]2CC[C@]2(C)C(c3cccnc3)=CC[C@@H]12 [Compound 293, (10R,13S)-4,4,10,13-tetramethyl-17-(pyridin-3-yl)-4,7,8,9,10,11,12,13,14,15-decahydro-1H-cyclopenta[a]phenanthren-3(2H)-one] | < 10%
15 | CC(=O)N(C)C1CC[C@@]2(C)C(CCC3C2CC[C@]2(C)C(c4cncc(C)c4)=CCC32)C1 (stereo partly drawn) [Compound 212, N-((10S,13S)-10,13-dimethyl-17-(5-methylpyridin-3-yl)-2,3,4,5,6,7,8,9,10,11,12,13,14,15-tetradecahydro-1H-cyclopenta[a]phenanthren-3-yl)-N-methylacetamide] | 10 to 50%
16 | CO[C@H]1CC[C@@]2(C)C(=CCC3C2CC[C@]2(C)C(n4ccnc4)=CCC32)C1 (stereo partly drawn) [Compound 459, 1-((3S,10R,13S)-3-methoxy-10,13-dimethyl-2,3,4,7,8,9,10,11,12,13,14,15-dodecahydro-1H-cyclopenta[a]phenanthren-17-yl)-1H-imidazole] | 10 to 50%
17 | CC(C)(C)NC(=O)O[C@H]1CC[C@@]2(C)C(=CC[C@H]3C4=CC=C(c5cccnc5)[C@@]4(C)CC[C@@H]32)C1 [Compound 203, (3S,10R,13S)-10,13-dimethyl-17-(pyridin-3-yl)-2,3,4,7,8,9,10,11,12,13-decahydro-1H-cyclopenta[a]phenanthren-3-yl tert-butylcarbamate] | 10 to 50%
18 | C[C@]12CC[C@H](O)CC1CCC1C2CC[C@]2(C)C(c3ccc[n+]([O-])c3)CCC12 (stereo partly drawn) [Compound 472, 3-((3S,10S,13S)-3-hydroxy-10,13-dimethylhexadecahydro-1H-cyclopenta[a]phenanthren-17-yl)pyridine 1-oxide] | 10 to 50%
19 | C[C@]12CC[C@H]3[C@@H](CC(=O)C45CC4CC[C@]35C)C1=CC=C2c1cccnc1 (stereo partly drawn) [Compound 250, (3aR,5aS)-3a,5a-dimethyl-6-(pyridin-3-yl)-1a,2,3,3a,3b,4,5,5a,8b,9-decahydrocyclopenta[a]cyclopropa[2,3]cyclopenta[1,2-f]naphthalen-10(1H)-one] | > 50%
20 | COC1CC[C@@]2(C)C(=CCC3C2CC[C@]2(C)C(c4cncc(C)c4)=CCC32)C1 (stereo partly drawn) [Compound 454, 3-((10R,13S)-3-methoxy-10,13-dimethyl-2,3,4,7,8,9,10,11,12,13,14,15-dodecahydro-1H-cyclopenta[a]phenanthren-17-yl)-5-methylpyridine] | < 10%

same assay, conditions: test compound at 1 nM, read-out: CYP17 enzymatic assay percent inhibition at 1 nM (Biological Example No. 12)

Row | SMILES | inhibition at 0.001 µM
21 | CCc1ccncc1C1=CC=C2C3CCC4CC(=O)CC[C@]4(C)C3CC[C@]12C (stereo partly drawn) [Compound 488, (10S,13S)-17-(4-ethylpyridin-3-yl)-10,13-dimethyl-4,5,6,7,8,9,10,11,12,13-decahydro-1H-cyclopenta[a]phenanthren-3(2H)-one] | 10 to 50%
22 | Cc1ccncc1C1=CC[C@H]2[C@@H]3CC[C@H]4CNC(=O)CC[C@]4(C)[C@H]3CC[C@]12C [Compound 484, (5aR,5bS,7aS,10aS,10bR,12aR)-5a,7a-dimethyl-8-(4-methylpyridin-3-yl)-1,2,5,5a,5b,6,7,7a,10,10a,10b,11,12,12a-tetradecahydrocyclopenta[5,6]naphtho[2,1-c]azepin-3(4H)-one] | 10 to 50%
23 | Cc1ccncc1C1=CC=C2C3CCC4C[C@@H](O)CC[C@]4(C)C3CC[C@]12C (stereo partly drawn) [Compound 485, (3S,10S,13S)-10,13-dimethyl-17-(4-methylpyridin-3-yl)-2,3,4,5,6,7,8,9,10,11,12,13-dodecahydro-1H-cyclopenta[a]phenanthren-3-ol] | 10 to 50%
24 | CC1(O)CC2CC[C@@H]3[C@H](CC[C@]4(C)C(c5cccnc5)=CC[C@@H]34)[C@@]2(C)C1 (stereo partly drawn) [Compound 400, (3aS,5aS)-2,3a,5a-trimethyl-6-(pyridin-3-yl)-1,2,3,3a,3b,4,5,5a,8,8a,8b,9,10,10a-tetradecahydrodicyclopenta[a,f]naphthalen-2-ol] | 10 to 50%
25 | CC(C)(C)C(=O)N[C@@H]1CC[C@@]2(C)C(CCC3C2CC[C@]2(C)C(c4cccnc4)=CCC32)C1 (stereo partly drawn) [Compound 218, N-((3R,10S,13S)-10,13-dimethyl-17-(pyridin-3-yl)-2,3,4,5,6,7,8,9,10,11,12,13,14,15-tetradecahydro-1H-cyclopenta[a]phenanthren-3-yl)pivalamide] | 10 to 50%
